Patent US20250340591A1, “COMPOSITION FOR PREVENTING OR TREATING INFLAMMATORY BOWEL DISEASE CONTAINING NOVEL COMPOUND” (ANYGEN CO., LTD., priority 2021, published 2025)
Square brackets hold non-standard residues; d marks the D form. Peptide text beside a SMILES is read from it. * marks the point of attachment. His(Trt) = N[C@@H](Cc1cn(C(c2ccccc2)(c2ccccc2)c2ccccc2)cn1)C(=O)O; His(τ-CHPh2) = N[C@@H](Cc1cn(C(c2ccccc2)c2ccccc2)cn1)C(=O)O; Tyr(3-NH2) = Nc1cc(C[C@H](N)C(=O)O)ccc1O; dPhe(4-Br) = N[C@H](Cc1ccc(Br)cc1)C(=O)O; dPhe(4-Me) = Cc1ccc(C[C@@H](N)C(=O)O)cc1; Decanoyl = CCCCCCCCCC(=O)*; Octanoyl = CCCCCCCC(=O)*

target: T1, GPR39 (Homo sapiens, UniProt O43194); experiment: luciferase assay system (SRE luciferase reporter gene, CV-1 cells expressing GPR39); type: cell-based; set-up: expressed in transfected cells; host or cells: CV-1 fibroblast cell line (Korea Cell Line Bank), adenoviral transduction at 50 MOI; settings: not given
T1 sequence (O43194 1-453): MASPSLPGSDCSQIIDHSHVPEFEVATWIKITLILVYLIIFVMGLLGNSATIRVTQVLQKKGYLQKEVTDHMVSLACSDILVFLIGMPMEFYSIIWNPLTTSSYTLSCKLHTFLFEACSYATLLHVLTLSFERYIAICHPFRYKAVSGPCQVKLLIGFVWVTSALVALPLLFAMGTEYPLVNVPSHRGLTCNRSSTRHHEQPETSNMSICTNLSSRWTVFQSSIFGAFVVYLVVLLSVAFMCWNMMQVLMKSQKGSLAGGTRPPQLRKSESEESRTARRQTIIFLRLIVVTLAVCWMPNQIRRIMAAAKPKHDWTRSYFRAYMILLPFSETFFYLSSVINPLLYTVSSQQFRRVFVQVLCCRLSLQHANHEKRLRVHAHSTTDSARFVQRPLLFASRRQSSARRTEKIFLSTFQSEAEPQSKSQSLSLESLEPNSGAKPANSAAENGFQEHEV

| Structure (SMILES) | ECmax (−fold induction over basal) [fold induction over basal] |
| --- | --- |
| CCCCCCCC(=O)NCCCC[C@H](NC(=O)[C@@H](N)Cc1cn(C(c2ccccc2)(c2ccccc2)c2ccccc2)cn1)C(=O)N[C@H](Cc1ccc(Br)cc1)C(=O)N[C@@H](Cc1ccc(O)cc1)C(=O)O [HKFY-29, ((R)-2-((S)-2-((S)-2-amino-3-(1-trityl-1H-imidazol-4-yl)propanamido)-6-octanamidohexanamido)-3-(4-bromophenyl)propanoyl)-L-tyrosine] (H-[His(Trt)]K(Octanoyl)[dPhe(4-Br)]Y-OH) | 26.8 ± 1.87 |
| CCCCCCCC(=O)NCCCC[C@H](NC(=O)[C@@H](N)Cc1cn(C(c2ccccc2)c2ccc(O)cc2)cn1)C(=O)N[C@H](Cc1ccc(C)cc1)C(=O)N[C@@H](Cc1ccc(O)cc1)C(=O)O (stereo partly drawn) [HKFY-65, ((2R)-2-((2S)-2-((2S)-2-amino-3-(1-((4-hydroxyphenyl)(phenyl)methyl)-1H-imidazol-4-yl)propanamido)-6-octanamidohexanamido)-3-(p-tolyl)propanoyl)-L-tyrosine] | 18.3 ± 2.2 |
| CCCCCCCC(=O)NCCCC[C@H](NC(=O)[C@@H](N)Cc1cn(C(c2ccccc2)c2ccc(OC)cc2)cn1)C(=O)N[C@H](Cc1ccc(C)cc1)C(=O)N[C@@H](Cc1ccc(O)cc1)C(=O)O (stereo partly drawn) [HKFY-64, ((2R)-2-((2S)-2-((2S)-2-amino-3-(1-((4-methoxyphenyl)(phenyl)methyl)-1H-imidazol-4-yl)propanamido)-6-octanamidohexanamido)-3-(p-tolyl)propanoyl)-L-tyrosine] | 16 ± 1.5 |
| CCCCCCCCCC(=O)NCCCC[C@H](NC(=O)[C@@H](N)Cc1cn(C(c2ccccc2)(c2ccccc2)c2ccccc2)cn1)C(=O)N[C@@H](Cc1ccccc1)C(=O)N[C@@H](Cc1ccc(O)cc1)C(=O)O [HKFY-24, N6-decanoyl-N2-(Nt-trityl-L-histidyl)-L-lysyl-L-phenylalanyl-L-tyrosine] (H-[His(Trt)]K(Decanoyl)FY-OH) | 7.03 ± 0.57 |
| CCCCCCCC(=O)NCCCC[C@H](NC(=O)[C@@H](N)CC1=CN(CCC2CCCCC2)CN1CCC1CCCCC1)C(=O)N[C@@H](Cc1ccccc1)C(=O)N[C@@H](Cc1ccc(O)cc1)C(=O)O [HKFY-8, N2-((S)-2-amino-3-(1,3-bis(2-cyclohexylethyl)-2,3-dihydro-1H-imidazol-4-yl)propanoyl)-N6-octanoyl-L-lysyl-L-phenylalanyl-L-tyrosine] | 17.3±1.22 |
| CCCCCCCC(=O)NCCCC[C@H](NC(=O)[C@@H](N)Cc1cn(C(c2ccccc2)c2ccccc2)cn1)C(=O)N[C@@H](Cc1ccccc1)C(=O)N[C@@H](Cc1ccc(O)cc1)C(=O)O [HKFY-33, N2-(Nt-benzhydryl-L-histidyl)-N6-octanoyl-L-lysyl-L-phenylalanyl-L-tyrosine] (H-[His(τ-CHPh2)]K(Octanoyl)FY-OH) | 20 ± 0.57 |
| CCCCCCCC(=O)NCCCC[C@H](NC(=O)[C@@H](N)Cc1cn(C(c2ccccc2)c2ccccc2)cn1)C(=O)N[C@H](Cc1ccc(C)cc1)C(=O)N[C@@H](Cc1ccc(O)c(N)c1)C(=O)O [HKFY-70, (S)-2-((R)-2-((S)-2-((S)-2-amino-3-(1-benzhydryl-1H-imidazol-4-yl)propanamido)-6-octanamidohexanamido)-3-(p-tolyl)propanamido)-3-(3-amino-4-hydroxyphenyl)propanoic acid] (H-[His(τ-CHPh2)]K(Octanoyl)[dPhe(4-Me)][Tyr(3-NH2)]-OH) | 10.1 ± 1.6 |
| CCCCCCCC(=O)NCCCC[C@H](NC(=O)[C@@H](N)Cc1cn(C(c2ccccc2)(c2ccccc2)c2ccccc2)cn1)C(=O)N[C@@H](Cc1ccccc1)C(=O)N[C@@H](Cc1ccc(O)cc1)C(=O)O [HKFY-1, N6-octanoyl-N2-(Nt-trityl-L-histidyl)-L-lysyl-L-phenylalanyl-L-tyrosine] (H-[His(Trt)]K(Octanoyl)FY-OH) | 20.51 ± 0.57 |
| CCCCCCCC(=O)NCCCC[C@H](NC(=O)[C@@H](N)Cc1cn(C(c2ccccc2)(c2ccccc2)c2ccccc2)cn1)C(=O)N[C@@H](Cc1ccccc1)C(=O)N[C@@H](Cc1ccc(O)cc1)C(=O)N[C@@H](CO)C(=O)N[C@@H](CC(=O)O)C(=O)N[C@@H](CCC(N)=O)C(=O)N[C@@H](CCC(N)=O)C(=O)N[C@@H](C)C(=O)N[C@@H](CCCNC(=N)N)C(=O)N[C@@H](Cc1ccccc1)C(N)=O [HKFY-38, (3S,6S,9S,12S,15S)-15-((S)-2-amino-3-(1-trityl-1H-imidazol-4-yl)propanamido)-12-benzyl-3-(((6S,9S,12S,15S)-1,18-diamino-6-(((S)-1-amino-1-oxo-3-phenylpropan-2-yl)carbamoyl)-12-(3-amino-3-oxopropyl)-1-imino-9-methyl-8,11,14,18-tetraoxo-2,7,10,13-tetraazaoctadecan-15-yl)carbamoyl)-9-(4-hydroxybenzyl)-6-(hydroxymethyl)-5,8,11,14,21-pentaoxo-4,7,10,13,20-pentaazaoctacosanoic acid] (H-[His(Trt)]K(Octanoyl)FYSDQQARF-NH2) | 16.5 ± 0.02 |
| CCCCCCCC(=O)NCCCC[C@H](NC(=O)[C@@H](N)Cc1cn(CCC2CCCCC2)cn1)C(=O)N[C@@H](Cc1ccccc1)C(=O)N[C@@H](Cc1ccc(O)cc1)C(=O)O [HKFY-11, N2-(Nt-(2-cyclohexylethyl)-L-histidyl)-N6-octanoyl-L-lysyl-L-phenylalanyl-L-tyrosine] | 22 ± 2.2 |

same assay, conditions: CV-1 cells, GPR39 and SRE luciferase adenovirus, 6 hours treatment

| Structure (SMILES) | ECmax (−fold induction over basal) [fold induction over basal] |
| --- | --- |
| CCCCCCCC(=O)NCCCC[C@H](NC(=O)[C@@H](N)Cc1cn(C(c2ccccc2)(c2ccccc2)c2ccccc2)cn1)C(=O)N[C@@H](Cc1ccccc1)C(=O)N[C@@H](Cc1ccc(O)cc1)C(=O)N[C@@H](CO)C(=O)N[C@@H](CCC(N)=O)C(=O)N[C@@H](CC(=O)O)C(=O)NCC(=O)N[C@@H](C)C(=O)N[C@@H](CCCNC(=N)N)C(=O)N[C@@H](Cc1ccccc1)C(N)=O [HKFY-41, (3S,6S,9S,12S,15S,18S)-3-((2-(((S)-1-(((S)-1-(((S)-1-amino-1-oxo-3-phenylpropan-2-yl)amino)-5-guanidino-1-oxopentan-2-yl)amino)-1-oxopropan-2-yl)amino)-2-oxoethyl)carbamoyl)-18-((S)-2-amino-3-(1-trityl-1H-imidazol-4-yl)propanamido)-6-(3-amino-3-oxopropyl)-15-benzyl-12-(4-hydroxybenzyl)-9-(hydroxymethyl)-5,8,11,14,17,24-hexaoxo-4,7,10,13,16,23-hexaazahentriacontanoic acid] (H-[His(Trt)]K(Octanoyl)FYSQDGARF-NH2) | 12.2 ± 0.02 |

same assay, conditions: comment on Table 3

| Structure (SMILES) | activity level for GPR39 (in words) |
| --- | --- |
| CCCCCCCC(=O)NCCCC[C@H](NC(=O)[C@@H](N)Cc1cn(C(c2ccccc2)c2ccc(O)cc2)cn1)C(=O)N[C@H](Cc1ccc(C)cc1)C(=O)N[C@@H](Cc1ccc(O)cc1)C(=O)O (stereo partly drawn) [HKFY-65, ((2R)-2-((2S)-2-((2S)-2-amino-3-(1-((4-hydroxyphenyl)(phenyl)methyl)-1H-imidazol-4-yl)propanamido)-6-octanamidohexanamido)-3-(p-tolyl)propanoyl)-L-tyrosine] | higher activity level than other HKFY derivatives |
| CCCCCCCC(=O)NCCCC[C@H](NC(=O)[C@@H](N)Cc1cn(C(c2ccccc2)c2ccc(OC)cc2)cn1)C(=O)N[C@H](Cc1ccc(C)cc1)C(=O)N[C@@H](Cc1ccc(O)cc1)C(=O)O (stereo partly drawn) [HKFY-64, ((2R)-2-((2S)-2-((2S)-2-amino-3-(1-((4-methoxyphenyl)(phenyl)methyl)-1H-imidazol-4-yl)propanamido)-6-octanamidohexanamido)-3-(p-tolyl)propanoyl)-L-tyrosine] | higher activity level than other HKFY derivatives |
